Test results reported in patent US11478459B2, “Pharmaceutical preparation” (Merck Patent GmbH, priority 2017, dated 2022).
In brackets after ≈: the same amount, converted by molar mass. Where two headings read alike, the source gives them in different places.

Assay: Solubility of the Compound in water, biorelevant media (FaSSIF, FeSSIF) and oils
Assay type: physicochemical

| DCS classification (Butler and Dressman, 2010) | solubility (FaSSIF, read-out: solubility in Fasted Simulated Intestinal Fluid (FaSSIF)) [µg/mL] | solubility (FeSSIF, read-out: solubility in FedState Simulated Intestinal Fluid (FeSSIF)) [µg/mL] | dose/solubility ratio (estimated efficacious human dose of >100 mg) | solubility in the tested oils (in words) | solubility in water and biorelevant media (in words) | solubility (FaSSIF, as restated in Example 5, read-out: solubility of the Compound in FaSSIF) [µg/mL] | Compound |
| --- | --- | --- | --- | --- | --- | --- | --- |
| DCS IIb | 0.25 (≈ 0.584 µM) | 1 (≈ 2.33 µM) | at least 100,000 | low solubility | very low solubility | – | COc1cc2ncc3c(c2cc1-c1cnn(C)c1)n(-c1ccc(C#N)cc1F)c(=O)n3C [3-Fluoro-4-[7-methoxy-3-methyl-8-(1-methyl-1H-pyrazol-4-yl)-2-oxo-2,3-dihydro-imidazo[4,5-c]quinolin-1-yl]-benzonitrile] |
| – | – | – | – | – | – | ~0.25 (≈ 0.584 µM) | COc1cc2ncc3c(c2cc1-c1cnn(C)c1)n(-c1ccc(C#N)cc1F)c(=O)n3C [Compound, 3-Fluoro-4-[7-methoxy-3-methyl-8-(1-methyl-1H-pyrazol-4-yl)-2-oxo-2,3-dihydro-imidazo[4,5-c]quinolin-1-yl]-benzonitrile] |
